Results on 17 molecules are retold here after patent US10975093B2, “Fused 1,4-diazepines as BET protein degraders” (THE REGENTS OF THE UNIVERSITY OF MICHIGAN, priority 2016, dated 2021).

SMILES strings stand for the structures.

As a reminder, the IC50 is the concentration at which inhibition is half-maximal.

In one test the test system is MOLM-13. Kind of test: Cell growth inhibition, CellTiter-Glo Luminescent Cell Viability Assay, MOLM-13. Format: cell-based. The conditions noted are these: MOLM-13 cells, 4 days incubation. The method, then:
(§1) Cell growth inhibitory activity of representative Compounds of the Disclosure was determined in various cell lines using CellTiter-Glo® Luminescent Cell Viability Assay. Cells were seeded in 384-well white opaque cell culture plates at a density of 2,000 cells/well with serially diluted compounds and incubated at 37° C. in an atmosphere of 95% air and 5% CO2 for 4 days. Cell viability was determined using the CellTiter-Glo® Luminescent Cell Viability Assay Kit (Promega, Madison, Wis.) according to the manufacture's instruction. Briefly, a volume of CellTiter-Glo® Reagent equal to the volume of cell culture medium was added to each well, and then the plates were incubated at room temperature for 10-20 minutes. The luminescent signal was measured using a Tecan Infinite M1000 multimode microplate reader (Tecan, Morrisville, N.C.). The half maximal inhibitory concentration (IC50) was calculated using the GraphPad Prism 5 software (GraphPad Software, La Jolla, Calif.).

The next test concerns MDA-MB-231. Kind of test: Cell growth inhibition, CellTiter-Glo Luminescent Cell Viability Assay, MDA-MB-231. Format: cell-based. The conditions noted are these: MDA-MB-231 cells, 4 days incubation. The method, then: as §1
Background: Cellular ATP, detected with luciferase, serves as a proxy for viable cell number.

Regarding `Cc1c(C#Cc2cnn(CCCn3cnc(COc4cccc5c4C(=O)N(C4CCC(=O)NC4=O)C5=O)c3)c2)sc2c1C(c1ccc(Cl)cc1)=NCc1nnc(C)n1-2` (stereo not drawn) [compound 155, 4-((1-(3-(4-((4-(4-chlorophenyl)-3,9-dimethyl-6H-thieno[3,2-f][1,2,4]triazolo[4,3-a][1,4]diazepin-2-yl)ethynyl)-1H-pyrazol-1-yl)propyl)-1H-imidazol-4-yl)methoxy)-2-(2,6-dioxopiperidin-3-yl)isoindoline-1,3-dione], the IC50 in the test with MOLM-13 (Homo sapiens, MOLM-13, 96 h) was over 100 nM; in the test on MDA-MB-231 (Homo sapiens, MDA-MB-231, 96 h), over 100 nM.

`Cc1c(C#Cc2cnn(CCCn3cnc(COc4cccc5c4CN(C4CCC(=O)NC4=O)C5=O)c3)c2)sc2c1C(c1ccc(Cl)cc1)=NCc1nnc(C)n1-2` (stereo not drawn) [compound 156, 3-(4-((1-(3-(4-((4-(4-chlorophenyl)-3,9-dimethyl-6H-thieno[3,2-f][1,2,4]triazolo[4,3-a][1,4]diazepin-2-yl)ethynyl)-1H-pyrazol-1-yl)propyl)-1H-imidazol-4-yl)methoxy)-1-oxoisoindolin-2-yl)piperidine-2,6-dione]: the IC50 came out at 12.8 nM in the test on MOLM-13 (Homo sapiens, MOLM-13, 96 h) and 17.6 nM in the test on MDA-MB-231 (Homo sapiens, MDA-MB-231, 96 h).

Consider `Cc1c(C#Cc2cnn(CCCC#Cc3ccc4c(c3)C(=O)N(C3CCC(=O)NC3=O)C4=O)c2)sc2c1C(c1ccc(Cl)cc1)=NCc1nnc(C)n1-2` (stereo not drawn) [compound 157, 5-(5-(4-((4-(4-chlorophenyl)-3,9-dimethyl-6H-thieno[3,2-f][1,2,4]triazolo[4,3-a][1,4]diazepin-2-yl)ethynyl)-1H-pyrazolo-1-yl)pent-1-yn-1-yl)-2-(2,6-dioxopiperidin-3-yl)isoindoline-1,3-dione], for which the IC50 in the test with MOLM-13 (Homo sapiens, MOLM-13, 96 h) turned out to be 18.6 nM; in the test on MDA-MB-231 (Homo sapiens, MDA-MB-231, 96 h) it was 52.7 nM.

Take `Cc1c(C#Cc2cnn(CCCC#Cc3ccc4c(c3)C(=O)N(C3CCC(=O)NC3=O)C4=O)c2)sc2c1C(c1ccc(Cl)cc1)=N[C@@H](C)c1nnc(C)n1-2` (stereo partly drawn) [compound 158, 5-(5-(4-(((S)-4-(4-chlorophenyl)-3,6,9-trimethyl-6H-thieno[3,2-f][1,2,4]triazolo[4,3-a][1,4]diazepin-2-yl)ethynyl)-1H-pyrazolo-1-yl)pent-1-yn-1-yl)-2-(2,6-dioxopiperidin-3-yl)isoindoline-1,3-dione]: the IC50 in the test with MOLM-13 (Homo sapiens, MOLM-13, 96 h) worked out at 2.5 nM; in the test on MDA-MB-231 (Homo sapiens, MDA-MB-231, 96 h), 7.2 nM.

`Cc1c(C#Cc2cnn(CCCC#Cc3cccc4c3C(=O)N(C3CCCNC3=O)C4=O)c2)sc2c1C(c1ccc(Cl)cc1)=NCc1nnc(C)n1-2` (stereo not drawn) [compound 159, 4-(5-(4-((4-(4-chlorophenyl)-3,9-dimethyl-6H-thieno[3,2-f][1,2,4]triazolo[4,3-a][1,4]diazepin-2-yl)ethynyl)-1H-pyrazol-1-yl)pent-1-yn-1-yl)-2-(2-oxopiperidin-3-yl)isoindoline-1,3-dione]: the IC50 is over 100 nM with MOLM-13 (Homo sapiens, MOLM-13, 96 h) and over 100 nM in the test on MDA-MB-231 (Homo sapiens, MDA-MB-231, 96 h).

Regarding `Cc1c(C#Cc2cnn(CCCC#Cc3cccc4c3C(=O)N(C3CCCNC3=O)C4=O)c2)sc2c1C(c1ccc(Cl)cc1)=N[C@@H](C)c1nnc(C)n1-2` (stereo partly drawn) [compound 160, 4-(5-(4-(((S)-4-(4-chlorophenyl)-3,6,9-trimethyl-6H-thieno[3,2-f][1,2,4]triazolo[4,3-a][1,4]diazepin-2-yl)ethynyl)-1H-pyrazol-1-yl)pent-1-yn-1-yl)-2-(2-oxopiperidin-3-yl)isoindoline-1,3-dione], the IC50 stood at 42.6 nM in the test with MOLM-13 (Homo sapiens, MOLM-13, 96 h) and 58.8 nM in the test with MDA-MB-231 (Homo sapiens, MDA-MB-231, 96 h).

As for `Cc1c(C#Cc2ccc(CCCC#Cc3cccc4c3CN(C3CCC(=O)NC3=O)C4=O)nc2)sc2c1C(c1ccc(Cl)cc1)=N[C@@H](C)c1nnc(C)n1-2` (stereo partly drawn) [compound 166, 3-(4-(5-(5-(((S)-4-(4-chlorophenyl)-3,6,9-trimethyl-6H-thieno[3,2-f][1,2,4]triazolo[4,3-a][1,4]diazepin-2-yl)ethynyl)pyridin-2-yl)pent-1-yn-1-yl)-1-oxoisoindolin-2-yl)piperidine-2,6-dione], the IC50 in the test with MOLM-13 (Homo sapiens, MOLM-13, 96 h) came out at 0.9 nM; in the test with MDA-MB-231 (Homo sapiens, MDA-MB-231, 96 h), 0.6 nM.

With `Cc1c(C#Cc2ccc(CN3CCC(CNc4cccc5c4CN(C4CCC(=O)NC4=O)C5=O)CC3)cn2)sc2c1C(c1ccc(Cl)cc1)=NCc1nnc(C)n1-2` (stereo not drawn) [compound 167, 3-(4-(((1-((6-((4-(4-chlorophenyl)-3,9-dimethyl-6H-thieno[3,2-f][1,2,4]triazolo[4,3-a][1,4]diazepin-2-yl)ethynyl)pyridin-3-yl)methyl)piperidin-4-yl)methyl)amino)-1-oxoisoindolin-2-yl)piperidine-2,6-dione], the IC50 in the test on MOLM-13 (Homo sapiens, MOLM-13, 96 h) is 6.2 nM; with MDA-MB-231 (Homo sapiens, MDA-MB-231, 96 h), 7.2 nM.

As for `Cc1c(C#Cc2cnn(C[C@H]3CC[C@H](Nc4cccc5c4CN(C4CCC(=O)NC4=O)C5=O)CC3)c2)sc2c1C(c1ccc(Cl)cc1)=N[C@@H](C)c1nnc(C)n1-2` (stereo partly drawn) [compound 171, 3-(4-(((1S,4r)-4-((4-(((S)-4-(4-chlorophenyl)-3,6,9-trimethyl-6H-thieno[3,2-f][1,2,4]triazolo[4,3-a][1,4]diazepin-2-yl)ethynyl)-1H-pyrazol-1-yl)methyl)cyclohexyl)amino)-1-oxoisoindolin-2-yl)piperidine-2,6-dione], the half-inhibitory concentration (IC50) in the test with MOLM-13 (Homo sapiens, MOLM-13, 96 h) worked out at 0.6 nM; with MOLM-13 it was 0.8 nM; in the test on MDA-MB-231 (Homo sapiens, MDA-MB-231, 96 h) it was 0.9 nM; in the test with MDA-MB-231, 1 nM.

For the molecule `Cc1c(C#Cc2cnn(C[C@H]3CC[C@@H](Nc4cccc5c4CN(C4CCC(=O)NC4=O)C5=O)CC3)c2)sc2c1C(c1ccc(Cl)cc1)=N[C@@H](C)c1nnc(C)n1-2` (stereo partly drawn) [compound 172, 3-(4-(((1R,4s)-4-((4-(((S)-4-(4-chlorophenyl)-3,6,9-trimethyl-6H-thieno[3,2-f][1,2,4]triazolo[4,3-a][1,4]diazepin-2-yl)ethynyl)-1H-pyrazol-1-yl)methyl)cyclohexyl)amino)-1-oxoisoindolin-2-yl)piperidine-2,6-dione], the IC50 in the test on MOLM-13 (Homo sapiens, MOLM-13, 96 h) is 2.3 nM; in the test with MDA-MB-231 (Homo sapiens, MDA-MB-231, 96 h) it was 4.4 nM.

Turning to `Cc1c(C#Cc2cnn(C[C@H]3C[C@H](Nc4cccc5c4CN(C4CCC(=O)NC4=O)C5=O)C3)c2)sc2c1C(c1ccc(Cl)cc1)=N[C@@H](C)c1nnc(C)n1-2` (stereo partly drawn) [compound 173, 3-(4-(((1S,3r)-3-((4-(((S)-4-(4-chlorophenyl)-3,6,9-trimethyl-6H-thieno[3,2-f][1,2,4]triazolo[4,3-a][1,4]diazepin-2-yl)ethynyl)-1H-pyrazol-1-yl)methyl)cyclobutyl)amino)-1-oxoisoindolin-2-yl)piperidine-2,6-dione], the IC50 was determined as 3.3 nM in the test with MOLM-13 (Homo sapiens, MOLM-13, 96 h) and 4.6 nM with MDA-MB-231 (Homo sapiens, MDA-MB-231, 96 h).

For the molecule `Cc1c(C#Cc2cnn(CCN3CC(CNc4cccc5c4CN(C4CCC(=O)NC4=O)C5=O)C3)c2)sc2c1C(c1ccc(Cl)cc1)=N[C@@H](C)c1nnc(C)n1-2` (stereo partly drawn) [compound 175, 3-(4-(((1-(2-(4-(((S)-4-(4-chlorophenyl)-3,6,9-trimethyl-6H-thieno[3,2-f][1,2,4]triazolo[4,3-a][1,4]diazepin-2-yl)ethynyl)-1H-pyrazol-1-yl)ethyl)azetidin-3-yl)methyl)amino)-1-oxoisoindolin-2-yl)piperidine-2,6-dione], the IC50 stood at 0.35 nM with MOLM-13 (Homo sapiens, MOLM-13, 96 h) and 1.5 nM in the test on MDA-MB-231 (Homo sapiens, MDA-MB-231, 96 h).

Turning to `Cc1c(C#Cc2cnn(CCCN3CCN(c4cccc5c4C(=O)N(C4CCC(=O)NC4=O)C5=O)CC3)c2)sc2c1C(c1ccc(Cl)cc1)=N[C@@H](C)c1nnc(C)n1-2` (stereo partly drawn) [compound 178, 4-(4-(3-(4-(((S)-4-(4-chlorophenyl)-3,6,9-trimethyl-6H-thieno[3,2-f][1,2,4]triazolo[4,3-a][1,4]diazepin-2-yl)ethynyl)-1H-pyrazol-1-yl)propyl)piperazin-1-yl)-2-(2,6-dioxopiperidin-3-yl)isoindoline-1,3-dione], the IC50 in the test with MOLM-13 (Homo sapiens, MOLM-13, 96 h) was found to be 1 nM; with MDA-MB-231 (Homo sapiens, MDA-MB-231, 96 h) it was 0.6 nM.

Consider `Cc1c(C#Cc2cnn(CCCC#Cc3ccc4c(c3)CN(C3CCC(=O)NC3=O)C4=O)c2)sc2c1C(c1ccc(Cl)cc1)=N[C@@H](C)c1nnc(C)n1-2` (stereo partly drawn) [compound 179, 3-(5-(5-(4-(((S)-4-(4-chlorophenyl)-3,6,9-trimethyl-6H-thieno[3,2-f][1,2,4]triazolo[4,3-a][1,4]diazepin-2-yl)ethynyl)-1H-pyrazol-1-yl)pent-1-yn-1-yl)-1-oxoisoindolin-2-yl)piperidine-2,6-dione], for which the IC50 in the test with MOLM-13 (Homo sapiens, MOLM-13, 96 h) is 0.9 nM; in the test with MDA-MB-231 (Homo sapiens, MDA-MB-231, 96 h) it was 0.2 nM.

As for `Cc1c(C#Cc2cnn(CCCCCc3ccc4c(c3)CN(C3CCC(=O)NC3=O)C4=O)c2)sc2c1C(c1ccc(Cl)cc1)=N[C@@H](C)c1nnc(C)n1-2` (stereo partly drawn) [compound 180, 3-(5-(5-(4-(((S)-4-(4-chlorophenyl)-3,6,9-trimethyl-6H-thieno[3,2-f][1,2,4]triazolo[4,3-a][1,4]diazepin-2-yl)ethynyl)-1H-pyrazol-1-yl)pentyl)-1-oxoisoindolin-2-yl)piperidine-2,6-dione], the IC50 in the test with MOLM-13 (Homo sapiens, MOLM-13, 96 h) turned out to be 0.2 nM; with MDA-MB-231 (Homo sapiens, MDA-MB-231, 96 h), 0.04 nM.

With `Cc1c(C#Cc2ccc(CCC#Cc3cccc4c3CN(C3CCC(=O)NC3=O)C4=O)cn2)sc2c1C(c1ccc(Cl)cc1)=NCc1nnc(C)n1-2` (stereo not drawn) [compound 181, 3-(4-(4-(6-((4-(4-chlorophenyl)-3,9-dimethyl-6H-thieno[3,2-f][1,2,4]triazolo[4,3-a][1,4]diazepin-2-yl)ethynyl)pyridin-3-yl)but-1-yn-1-yl)-1-oxoisoindolin-2-yl)piperidine-2,6-dione], the IC50 in the test on MOLM-13 (Homo sapiens, MOLM-13, 96 h) was over 1000 nM; with MDA-MB-231 (Homo sapiens, MDA-MB-231, 96 h), 532 nM.

As for `Cc1c(C#Cc2ccc(CCC#Cc3cccc4c3CN(C3CCC(=O)NC3=O)C4=O)cn2)sc2c1C(c1ccc(Cl)cc1)=N[C@@H](C)c1nnc(C)n1-2` (stereo partly drawn) [compound 182, 3-(4-(4-(6-(((S)-4-(4-chlorophenyl)-3,6,9-trimethyl-6H-thieno[3,2-f][1,2,4]triazolo[4,3-a][1,4]diazepin-2-yl)ethynyl)pyridin-3-yl)but-1-yn-1-yl)-1-oxoisoindolin-2-yl)piperidine-2,6-dione], the IC50 in the test with MOLM-13 (Homo sapiens, MOLM-13, 96 h) was 2.8 nM; in the test with MDA-MB-231 (Homo sapiens, MDA-MB-231, 96 h), 1.7 nM.
